Assay results: publication PMC9412104, “Biochemical and Structural Insights on the Poplar Tau Glutathione Transferase GSTU19 and 20 Paralogs Binding Flavonoids” (Frontiers in Molecular Biosciences, 2022)
Read-outs that look alike come from different tables or passages of the source.

Key:
PtGSTU19 [1] = target: T1, PtGSTU19 (Populus trichocarpa, UniProt B9HKX9); test: GSH-conjugation activity toward model substrates
PtGSTU19Y160A [2] = target: T2, PtGSTU19Y160A (Populus trichocarpa, UniProt B9HKX9, Y160A); test: GSH-conjugation activity toward model substrates, variant; format: biochemical; conditions: PtGSTU19 Y160A, fixed saturating GSH, mean ± S.D.; for k cat: n = 3; for Km: n = 3, read-out: apparent KM
Procedure: (§2) Peroxidase activity toward hydroperoxides was measured using an NADPH coupled spectrophotometric assay ([Pégeot et al., 2014]).
(§3) The measured velocities were corrected by subtracting the rate of the spontaneous nonenzymatic reaction, and three independent experiments were performed at each substrate concentration.

PtGSTU19Y160C [3] = target: T3, PtGSTU19Y160C (Populus trichocarpa, UniProt B9HKX9, Y160C); test: as above; format: biochemical; conditions: PtGSTU19 Y160C, fixed saturating GSH, mean ± S.D.; for k cat: n = 3; for Km: n = 3, read-out: apparent KM
Procedure: as §2, §3

PtGSTU19Y160F [4] = target: T4, PtGSTU19Y160F (Populus trichocarpa, UniProt B9HKX9, Y160F); test: as above; format: biochemical; conditions: for k cat / Km: PtGSTU19 Y160F, GSH-conjugation, fixed saturating GSH, mean ± S.D., n = 3; for Km: read-out: apparent KM
Procedure: as §2, §3

PtGSTU20C160Y [5] = target: T5, PtGSTU20C160Y (Populus trichocarpa, UniProt D2X9R3, C160Y); test: as above; format: biochemical; conditions: PtGSTU19 C160Y in Table S4, fixed saturating GSH, mean ± S.D.; for k cat: n = 3; for Km: n = 3, read-out: apparent KM
Procedure: as §2, §3

PtGSTU20 [6] = target: T6, PtGSTU20 (Populus trichocarpa, UniProt D2X9R3); test: GSH-conjugation activity toward model substrates
PtGSTU19 [7] = target: T1, PtGSTU19; test: Thermal shift assay (SYPRO orange); format: binding; conditions: for ΔTm at 100 µM: read-out: ΔTd (denaturation temperature difference)
Procedure: (§1) Assays were performed in a mixture (final volume of 25 µL) containing 30 mM Tris-HCl pH 8.0, 100 µM of chemical compounds (diluted in 8% DMSO) originating from a chemical library (Supplementary Tables S2, S3), 20 µM of PtGSTU19 or 20, and 5X SYPRO orange. […] The denaturation temperature, which corresponds to the temperature at which 50% of the total fluorescence is measured, was determined by the nonlinear regression Boltzmann sigmoidal model in GraphPad Prism 8 software for data obtained in the presence of potential ligands. This temperature was compared with a reference assay in which organic compounds were replaced by an equivalent DMSO concentration.

PtGSTU20 [8] = target: T6, PtGSTU20; test: Thermal shift assay (SYPRO orange); format: binding
Procedure: as §1

PtGSTU19 [9] = target: T1, PtGSTU19; test: Competition (inhibition) assay of GSH-conjugation with PITC as substrate; format: biochemical; conditions: read-out: K i
Procedure: (§4) The measured velocities were corrected by subtracting the rate of the spontaneous nonenzymatic reaction, and three independent experiments were performed at each substrate concentration. The kinetic parameters (k cat and apparent K m) and the inhibition constants (K i) were, respectively, obtained by fitting the data to the nonlinear regression Michaelis–Menten model (kinetic assays) and to the mixed inhibition model (inhibition assays) in GraphPad Prism 8 software ([Copeland, 2013]).

PtGSTU20 [10] = target: T6, PtGSTU20; test: as above; format: biochemical; conditions: read-out: K i
Procedure: as §4

PtGSTU19 [11] = target: T1, PtGSTU19; test: Peroxidase activity, NADPH coupled spectrophotometric assay; format: biochemical; conditions: for Peroxidase activity (active on the peroxide): enzyme concentration increased up to 10 µM
Procedure: as §2, §4

PtGSTU20 [12] = target: T6, PtGSTU20; test: as above; format: biochemical; conditions: for Peroxidase activity (active on the peroxide): enzyme concentration increased up to 10 µM
Procedure: as §2, §4

PtGSTU19Y160A [13] = target: T2, PtGSTU19Y160A; conditions: PtGSTU19 Y160A, peroxidase activity, mean ± S.D., n = 3
Procedure: as §2, §3

PtGSTU19Y160C [14] = target: T3, PtGSTU19Y160C; conditions: PtGSTU19 Y160C, peroxidase activity, mean ± S.D., n = 3
Procedure: as §2, §3

PtGSTU19Y160F [15] = target: T4, PtGSTU19Y160F; conditions: PtGSTU19 Y160F, peroxidase activity, mean ± S.D., n = 3
Procedure: as §2, §3

PtGSTU20C160Y [16] = target: T5, PtGSTU20C160Y; conditions: PtGSTU19 C160Y in Table S4, peroxidase activity, mean ± S.D., n = 3
Procedure: as §2, §3

[17] = PtGSTU19, 25°C, fixed 1 mM GSH (0.7 mM with HNE), mean ± S.D., n = 3
[18] = 25°C, fixed 1 mM GSH (0.7 mM with HNE), mean ± S.D., n = 3
[19] = read-out: ΔTd (denaturation temperature difference)
[20] = PtGSTU19 20 µM, compound 100 µM, vs DMSO reference, flavonoid set (Table S3, Figure 4)
[21] = PtGSTU19 apo form 20 µM, compound 100 µM, vs DMSO reference, first chemical library screen (Table S2, Figure S9)
[22] = PtGSTU20 apo form 20 µM, compound 100 µM, vs DMSO reference, first chemical library screen (Table S2, Figure S9)
[23] = peroxidase activity, 1 mM GSH, pH 8.0, mean ± S.D., n = 3
[24] = read-out: apparent K m, peroxidase activity, 1 mM GSH, pH 8.0, mean ± S.D., n = 3

T3 sequence (B9HKX9 2-219 Y160C): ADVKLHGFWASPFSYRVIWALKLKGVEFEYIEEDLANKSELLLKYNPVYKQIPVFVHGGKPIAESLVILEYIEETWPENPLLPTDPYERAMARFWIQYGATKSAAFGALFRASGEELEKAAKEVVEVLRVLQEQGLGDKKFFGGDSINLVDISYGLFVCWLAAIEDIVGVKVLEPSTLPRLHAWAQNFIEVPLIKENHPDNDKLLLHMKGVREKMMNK
T5 sequence (D2X9R3 2-219 C160Y): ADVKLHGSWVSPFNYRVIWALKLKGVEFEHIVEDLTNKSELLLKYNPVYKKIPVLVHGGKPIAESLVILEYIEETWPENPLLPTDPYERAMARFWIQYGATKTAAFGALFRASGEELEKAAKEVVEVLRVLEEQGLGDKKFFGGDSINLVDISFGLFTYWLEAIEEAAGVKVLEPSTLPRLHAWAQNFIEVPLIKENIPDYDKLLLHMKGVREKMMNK
T2 sequence (B9HKX9 2-219 Y160A): as the sequence (B9HKX9 2-219 Y160C) above, with C159A counted along it
T6 sequence (D2X9R3 entry or part of it): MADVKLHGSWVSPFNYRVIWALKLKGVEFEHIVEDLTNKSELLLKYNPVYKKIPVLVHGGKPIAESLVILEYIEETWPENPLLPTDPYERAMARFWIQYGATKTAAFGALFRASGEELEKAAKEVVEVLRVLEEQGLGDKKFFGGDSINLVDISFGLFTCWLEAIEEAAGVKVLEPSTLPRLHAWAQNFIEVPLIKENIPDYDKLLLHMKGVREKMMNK
T4 sequence (B9HKX9 2-219 Y160F): as the sequence (B9HKX9 2-219 Y160C) above, with C159F counted along it
T1 sequence (B9HKX9 entry or part of it): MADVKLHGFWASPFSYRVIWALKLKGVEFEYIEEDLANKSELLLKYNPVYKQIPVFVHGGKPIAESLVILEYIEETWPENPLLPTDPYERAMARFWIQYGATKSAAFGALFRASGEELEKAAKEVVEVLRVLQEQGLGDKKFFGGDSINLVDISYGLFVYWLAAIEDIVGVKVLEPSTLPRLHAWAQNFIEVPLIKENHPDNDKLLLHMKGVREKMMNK

Compound: CCCCCC(O)C=CC=O (stereo not drawn) [HNE, 4-hydroxy-2-nonenal]
- Catalytic efficiency (PtGSTU19 [1]; PtGSTU19): 2000 M⁻¹ s⁻¹

Compound: S=C=NCCc1ccccc1 [PITC, phenethyl-isothiocyanate]
- k cat (PtGSTU19Y160A [2]): 2.3 ± 0.03 s⁻¹
- Km (PtGSTU19Y160A [2]): 49.2 ± 2.6 µM
- k cat (PtGSTU19Y160C [3]): 3.05 ± 0.05 s⁻¹
- Km (PtGSTU19Y160C [3]): 40.3 ± 3 µM
- k cat (PtGSTU19Y160F [4]): 3.9 ± 0.07 s⁻¹
- Km (PtGSTU19Y160F [4]): 31.1 ± 2.5 µM
- k cat (PtGSTU20C160Y [5]): 2.03 ± 0.08 s⁻¹
- Km (PtGSTU20C160Y [5]): 58.3 ± 9.2 µM
- k cat (PtGSTU19 [1]; [17]): 3.8 ± 0.1 s⁻¹
- Catalytic efficiency (PtGSTU20 [6]): 88900 M⁻¹ s⁻¹
- k cat (PtGSTU20 [6]; [18]): 5.1 ± 0.1 s⁻¹

Compound: O=c1c(O)c(-c2ccc(O)c(O)c2)oc2cc(O)cc(O)c12 [quercetin]
- ΔTm at 100 µM (PtGSTU19 [7]): > 4 °C
- ΔTm at 100 µM (PtGSTU20 [8]; [19]): > 4 °C

Compound: glutathionyl-phenylacetophenone [GS-PAP]
- Ki (PtGSTU19 [9]; PtGSTU19, GSH-conjugating reaction with PITC as substrate, mixed model inhibition, ND = no inhibition was detected): 2.3 ± 0.8 µM
- Ki (PtGSTU20 [10]; PtGSTU20, GSH-conjugating reaction with PITC as substrate, mixed model inhibition, ND = no inhibition was detected): 5.1 ± 2.1 µM
- ΔTd (denaturation temperature difference) (PtGSTU19 [7]; [20]): 4.99 ± 0.28 °C
- ΔTd (denaturation temperature difference) (PtGSTU19 [7]; [21]): +8.39 °C
- ΔTd (denaturation temperature difference) (PtGSTU20 [8]; PtGSTU20 20 µM, compound 100 µM, vs DMSO reference, flavonoid set (Table S3, Figure 4)): 6.48 ± 0.17 °C
- ΔTd (denaturation temperature difference) (PtGSTU20 [8]; [22]): +9.62 °C

Compound: N[C@@H](CCC(=O)N[C@@H](CS)C(=O)NCC(=O)O)C(=O)O [GSH, glutathione]
- ΔTd (denaturation temperature difference) (PtGSTU19 [7]; [21]): little or no change
- ΔTd (denaturation temperature difference) (PtGSTU20 [8]; [22]): little or no change
- apparent affinity for glutathione, reduced by a factor (PtGSTU19Y160F [4]): 4
- variation of apparent affinity for glutathione (PtGSTU19Y160F [4]): no variation

Compound: OO [H2O2, hydrogen peroxide]
- Peroxidase activity (active on the peroxide) (PtGSTU19 [11]): not
- Peroxidase activity (active on the peroxide) (PtGSTU20 [12]): not

Compound: COc1c(O)cc(O)c2c(=O)cc(-c3ccccc3)oc12 [wogonin]
- ΔTm at 100 µM (PtGSTU20 [8]; read-out: ΔTd (denaturation temperature difference), PtGSTU20 20 µM, compound 100 µM, vs DMSO reference, flavonoid set (Table S3, Figure 4)): 5.17 °C

Compound: O=[N+]([O-])c1ccc(Cl)c([N+](=O)[O-])c1 [CDNB]
- k cat (PtGSTU19Y160A [2]): 7.2 ± 0.9 s⁻¹
- Km (PtGSTU19Y160A [2]): 7040 ± 1380 µM
- k cat (PtGSTU19Y160C [3]): 14.0 ± 1.2 s⁻¹
- Km (PtGSTU19Y160C [3]): 4160 ± 620 µM
- k cat (PtGSTU19Y160F [4]): 17.3 ± 1.0 s⁻¹
- Km (PtGSTU19Y160F [4]): 3670 ± 390 µM
- k cat (PtGSTU20C160Y [5]): 0.59 ± 0.03 s⁻¹
- Km (PtGSTU20C160Y [5]): 2250 ± 229 µM
- k cat (PtGSTU19 [1]; [17]): 28.8 ± 2.2 s⁻¹
- k cat/K m (PtGSTU19 [1]; [17]): 8.9 ± 0.8 10^3 M^-1s^-1
- Catalytic efficiency of PtGSTU19 relative to PtGSTU20 (PtGSTU19 [1]; PtGSTU19 higher than PtGSTU20): 30 times
- Km (PtGSTU19 [1]; read-out: apparent K m, PtGSTU19, 25°C, fixed 1 mM GSH (0.7 mM with HNE), mean ± S.D., n = 3): 3390 ± 502 µM
- Catalytic efficiency (PtGSTU20 [6]): 300 M⁻¹ s⁻¹
- k cat (PtGSTU20 [6]; [18]): 0.59 ± 0.03 s⁻¹
- k cat/K m (PtGSTU20 [6]; [18]): 0.33 ± 0.01 10^3 M^-1s^-1
- Km (PtGSTU20 [6]; read-out: apparent K m, 25°C, fixed 1 mM GSH (0.7 mM with HNE), mean ± S.D., n = 3): 1780 ± 193 µM

Compound: O=C1C[C@@H](c2ccccc2)Oc2cc(O)cc(O)c21 [Pinocembrin]
- Ki (PtGSTU19 [9]): 152 ± 13.5 µM
- Ki (PtGSTU20 [10]): 61.2 ± 10.5 µM
- ΔTm at 100 µM (PtGSTU19 [7]; [20]): -0.01 ± 0.12 °C
- ΔTm at 100 µM (PtGSTU20 [8]; PtGSTU20 20 µM, compound 100 µM, vs DMSO reference, flavonoid set (Table S3, Figure 4), read-out: ΔTd (denaturation temperature difference)): 1.68 °C

Compound: O=c1cc(-c2ccc(O)cc2)oc2cc(O)cc(O)c12 [apigenin]
- ΔTm at 100 µM (PtGSTU20 [8]; [19]): 1.41 °C

Compound: CC(C)(OO)c1ccccc1 [CuOOH, cumene hydroperoxide]
- Peroxidase activity (active on the peroxide) (PtGSTU19 [11]): weakly active
- Catalytic efficiency (PtGSTU19 [11]; peroxidase activity): 800 M⁻¹ s⁻¹
- k cat (PtGSTU19 [11]; [23]): 0.17 ± 0.01 s⁻¹
- k cat/K m (PtGSTU19 [11]; [23]): 0.85 ± 0.04 10^3 M^-1s^-1
- Km (PtGSTU19 [11]; [24]): 197 ± 31.1 µM
- Peroxidase activity (active on the peroxide) (PtGSTU20 [12]): weakly active
- Catalytic efficiency (PtGSTU20 [12]; peroxidase activity): 2400 M⁻¹ s⁻¹
- k cat (PtGSTU20 [12]; [23]): 0.24 ± 0.01 s⁻¹
- k cat/K m (PtGSTU20 [12]; [23]): 2.4 ± 0.1 10^3 M^-1s^-1
- Km (PtGSTU20 [12]; [24]): 98.6 ± 15.4 µM
- k cat (PtGSTU19Y160A [13]): 0.33 ± 0.02 s⁻¹
- Km (PtGSTU19Y160A [13]; read-out: apparent KM): 701 ± 82.7 µM
- k cat (PtGSTU19Y160C [14]): 0.45 ± 0.03 s⁻¹
- Km (PtGSTU19Y160C [14]; read-out: apparent KM): 1260 ± 140 µM
- k cat (PtGSTU19Y160F [15]): 0.49 ± 0.01 s⁻¹
- Km (PtGSTU19Y160F [15]; read-out: apparent KM): 347 ± 34.6 µM
- k cat (PtGSTU20C160Y [16]): 0.14 ± 0.01 s⁻¹
- Km (PtGSTU20C160Y [16]; read-out: apparent KM): 491 ± 97.5 µM
